# Results: ChEMBL document CHEMBL1201862, “PubChem BioAssay data set” (2004)
# Activity calls are given as the source filed them.
# How the values were obtained:
# Phospholipase A2 = Phospholipase A2 (Homo sapiens, UniProt P04054); type: functional;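 also: confirmatory dose-response counterscreen on phospholipase A2, testing hits that came from an ultra-high-throughput screen for ATG4B inhibitors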
# Cysteine protease ATG4B = target: T1, Cysteine protease ATG4B (Homo sapiens, UniProt Q9Y4P1); type: functional;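 also: Fluorescence-based dose-response confirmation assay measuring inhibition of ATG4B activity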
# T1 sequence (Q9Y4P1 whole entry): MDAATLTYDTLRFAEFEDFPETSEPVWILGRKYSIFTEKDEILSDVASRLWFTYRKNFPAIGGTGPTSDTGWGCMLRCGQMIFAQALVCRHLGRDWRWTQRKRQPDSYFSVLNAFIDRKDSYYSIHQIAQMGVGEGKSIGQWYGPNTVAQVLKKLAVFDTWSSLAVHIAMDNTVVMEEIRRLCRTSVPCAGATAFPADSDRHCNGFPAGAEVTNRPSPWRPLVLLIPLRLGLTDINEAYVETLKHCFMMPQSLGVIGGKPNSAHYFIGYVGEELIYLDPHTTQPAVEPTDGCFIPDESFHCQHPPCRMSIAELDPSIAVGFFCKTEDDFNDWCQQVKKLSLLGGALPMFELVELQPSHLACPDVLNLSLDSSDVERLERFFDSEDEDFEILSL
# [1] = target: Luciferin 4-monooxygenase (Photinus pyralis, UniProt P08659); test: Counter Screen for Luciferase-based Assay Positives. [Related pubchem assays: 620, 618, 411 ]
# HT-1080 = test: HT1080 cell viability loss – fluorescence readout (AID 620); type: functional, cell-based; conditions: Homo sapiens
# Protein Wnt-3a = Protein Wnt-3a (Mus musculus, UniProt P27467); test: antagonism of Wnt3a pathway luciferase reporter – Wnt-LIGHT cells, luminescence, selectivity assay for Gli-SUFU antagonist project, dose response (AID 651570); type: functional; conditions: read-out: IC50_Mean;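 also: Wnt-LIGHT reporter cells stimulated with conditioned medium from Wnt3a-producing cells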
# [2] = target: Dual specificity tyrosine-phosphorylation-regulated kinase 1A (Rattus norvegicus, UniProt Q63470); type: biochemical, Homo sapiens
# [3] = A Cell Based Secondary Assay To Explore Cytotoxicity of Compounds that Sensitize Mycobacterium Tuberculosis to Beta-Lactam Antibiotics.; type: functional
# INS1 = test: INS-1E survival protection against cytokine death – cell-based, luminescence, retest, dose response (AID 449756); type: functional; conditions: Rattus norvegicus;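 also: cell death triggered by IL-1 beta plus TNF-alpha plus IFN-gamma mixture; protective hits raise ATP signal compared with cytokine alone wells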
# [4] = reduction of Shn3 3'UTR-driven luciferase in osteoblasts – cell-based, Clone20 osteoblasts, firefly luciferase, cherry-picked, dose response (AID 624132); type: functional;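 also: firefly luciferase luminescence from reporter carrying the Shn3 3'UTR in osteoblasts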
# [5] = loss of viability in HepG2 cells – cell-based, CellTiter-Glo, cherry-picked, cytotoxicity control for Shn3 inhibitor project, dose response (AID 624134); type: functional
# [6] = non-specific 3'UTR reporter inhibition in Clone20-Shn3RL – cell-based, Renilla luciferase, cherry-picked, counter-screen for Shn3 inhibitor project, dose response (AID 624133); type: functional
# [7] = intracellular Trypanosoma cruzi inhibitors in host cells – cell-based, plate reader, cherry-pick samples, set 3, dose response (AID 651818); type: functional;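 also: compounds incubated with infected cells for about four days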
# [8] = P. falciparum Dd2 growth inhibitors, dose response, SYBR Green, cherry-picked samples (AID 1159567); type: functional, cell-based
# [9] = toxicity to human hepatoma HepG2 cells – cell-based, cherry-picked samples, cytotoxicity control, dose response (AID 1159577); type: functional
# [10] = growth inhibition of yeast DHODH-expressing 3D7 parasites – SYBR Green, dry powder samples, dose response (AID 1159570); type: functional, cell-based;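 also: parasite growth measured after 72 hours of compound exposure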
# [11] = growth inhibition of PfATP4-mutant resistant parasites – NITD609-resistant line, SYBR Green, dry powder, dose response (AID 1159571); type: functional, cell-based;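 also: parasites synchronized at ring stage by sorbitol before testing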
# [12] = Dd2 malaria parasite growth inhibition potency – SYBR Green, dry powder samples, dose response (AID 1159566); type: functional, cell-based;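 also: potency for growth inhibition with lower SYBR green DNA signal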
# [13] = toxicity to human HepG2 hepatoma cells – cell-based, plate reader, dry powder samples, cytotoxicity control, dose response (AID 1159569); type: functional;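 also: inhibitor potency with signal falling toward the positive control level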
# cells [14] = test: cells
# [15] = viability of uninfected HEp-2 cells – cell-based, HTS, cytotoxicity control for RSV inhibitor project, dose response (AID 2410); type: functional; conditions: human respiratory syncytial virus
# HEK293 = test: EBV LMP1 TES2 canonical NF-kB signalling blockers – cell-based, HEK293, luciferase, cherry-pick, dose response (AID 588343); type: functional; conditions: Homo sapiens
# [16] = viability of PTEN-deleted HCT116 cells – cell-based, HCT116 PTEN knockout, dose response (AID 1047); type: functional;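 also: HCT116 colon tumor cells with PTEN knocked out; cells exposed to compound for 60 hours before readout; potency for loss of cell viability measured by luminescence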
# [17] = viability of HCT116 lacking mutant beta-catenin – cell-based, human colon tumor, dose response (AID 1045); type: functional;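 also: HCT116 colon tumor cells with beta catenin knocked out; cells exposed to compound for 60 hours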
# [18] = Trypanosoma cruzi growth suppression in host cells – NIH3T3 host cells, beta-gal luminescence, confirmation (AID 2044); type: functional, cell-based;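 also: intracellular parasites grown in NIH/3T3 mouse fibroblasts as host cells; luminescent beta-galactosidase reporter signal from transgenic T. cruzi replicating inside host cells; inhibitors lower the luminescence signal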
# [19] = NIH3T3 cell viability loss – ATP luminescence, mouse fibroblasts, counter-screen, dose response (AID 2010); type: functional, cell-based;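 also: cells exposed to compound for about 90 hours before reading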
# [20] = target: T2, Heat shock factor protein 1 (Mus musculus, UniProt P38532); test: enhancement of HSF1-driven luciferase signal – cell-based, NIH3T3, luminescence, dose retest, confirmation (AID 435004); type: functional;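 also: stress induced by proteasome inhibitor MG132 added 30 min after compound; luciferase reporter driven by HSF1 response element in NIH3T3 cells; actives raise luminescence as potentiators of the MG132 stress response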
# T2 sequence (P38532 whole entry): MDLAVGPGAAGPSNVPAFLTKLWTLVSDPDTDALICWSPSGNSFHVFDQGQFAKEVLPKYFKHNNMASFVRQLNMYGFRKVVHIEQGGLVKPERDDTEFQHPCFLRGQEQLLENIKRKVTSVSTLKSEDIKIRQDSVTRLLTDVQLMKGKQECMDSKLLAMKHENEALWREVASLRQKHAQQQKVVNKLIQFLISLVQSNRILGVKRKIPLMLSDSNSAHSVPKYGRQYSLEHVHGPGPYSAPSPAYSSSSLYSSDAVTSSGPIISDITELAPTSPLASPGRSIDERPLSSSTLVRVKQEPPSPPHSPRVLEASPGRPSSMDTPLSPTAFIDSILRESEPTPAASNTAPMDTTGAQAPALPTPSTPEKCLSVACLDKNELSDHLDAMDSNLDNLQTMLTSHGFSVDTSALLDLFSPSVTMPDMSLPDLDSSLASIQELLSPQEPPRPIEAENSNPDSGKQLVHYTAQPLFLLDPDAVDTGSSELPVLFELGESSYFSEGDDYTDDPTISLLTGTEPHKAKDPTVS
# cells [21] = type: functional
# [22] = THP-1 cell cytotoxicity, dose response, cytotoxicity control for non-replicating M. tuberculosis project (AID 489025); type: functional
# [23] = Vero E6 cell cytotoxicity, dose response, cytotoxicity control for non-replicating M. tuberculosis project, secondary assay (AID 492998); type: functional, VeroE6; conditions: Vero C1008
# [24] = HepG2 cell cytotoxicity, dose response, cytotoxicity control for non-replicating M. tuberculosis project (AID 489018); type: functional; conditions: Mycobacterium tuberculosis
# [25] = target: Glucose-6-phosphate 1-dehydrogenase (Homo sapiens, UniProt P11413); test: inhibition of Homo sapiens G6PD, dose series – biochemical, fluorescence, selectivity assay for P. falciparum G6PD inhibitor project, dose response (AID 504792); type: functional
# [26] = Luminescence Cell-Based Dose Retest to Confirm Inhibitors of Cancer Stem Cells. [Related pubchem assays (depositor defined):AID2717, AID2721]; type: functional; conditions: Homo sapiens
# [27] = target: T3, High affinity choline transporter 1 (Homo sapiens, UniProt Q9GZV3); test: human choline transporter blockers, potency – cell-based, 5-point CRC, membrane potential dye, dose response (AID 504840); type: functional
# T3 sequence (Q9GZV3 whole entry): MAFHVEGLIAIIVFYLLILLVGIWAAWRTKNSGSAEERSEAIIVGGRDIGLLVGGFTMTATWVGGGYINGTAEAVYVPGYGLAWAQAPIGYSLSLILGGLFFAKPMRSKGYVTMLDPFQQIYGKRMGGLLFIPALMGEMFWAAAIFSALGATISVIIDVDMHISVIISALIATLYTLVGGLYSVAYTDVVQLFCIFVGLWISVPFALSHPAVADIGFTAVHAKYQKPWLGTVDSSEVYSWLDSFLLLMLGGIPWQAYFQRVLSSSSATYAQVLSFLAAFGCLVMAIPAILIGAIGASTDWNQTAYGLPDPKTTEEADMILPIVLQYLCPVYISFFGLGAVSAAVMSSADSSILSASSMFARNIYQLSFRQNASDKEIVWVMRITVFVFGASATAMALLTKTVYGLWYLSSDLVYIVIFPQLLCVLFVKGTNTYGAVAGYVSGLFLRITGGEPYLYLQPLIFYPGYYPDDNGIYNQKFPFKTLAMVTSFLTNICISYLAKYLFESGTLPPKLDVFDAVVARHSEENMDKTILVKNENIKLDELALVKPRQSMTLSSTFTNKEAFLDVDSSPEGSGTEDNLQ
# Glucose-6-phosphate 1-dehydrogenase, sequence (P11413 whole entry): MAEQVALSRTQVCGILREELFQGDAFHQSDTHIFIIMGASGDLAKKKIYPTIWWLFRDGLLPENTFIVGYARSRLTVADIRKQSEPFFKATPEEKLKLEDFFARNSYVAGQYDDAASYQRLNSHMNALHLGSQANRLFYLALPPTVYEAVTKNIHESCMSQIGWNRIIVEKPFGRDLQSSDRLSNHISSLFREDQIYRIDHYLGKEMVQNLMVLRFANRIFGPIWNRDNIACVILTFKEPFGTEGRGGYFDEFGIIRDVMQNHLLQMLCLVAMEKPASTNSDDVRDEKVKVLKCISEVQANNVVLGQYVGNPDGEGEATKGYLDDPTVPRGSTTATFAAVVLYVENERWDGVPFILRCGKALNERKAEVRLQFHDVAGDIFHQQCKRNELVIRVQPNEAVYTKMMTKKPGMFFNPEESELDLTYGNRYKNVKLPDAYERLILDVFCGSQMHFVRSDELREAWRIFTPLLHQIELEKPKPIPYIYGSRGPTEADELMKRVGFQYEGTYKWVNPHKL
# Protein Wnt-3a, sequence (P27467 whole entry): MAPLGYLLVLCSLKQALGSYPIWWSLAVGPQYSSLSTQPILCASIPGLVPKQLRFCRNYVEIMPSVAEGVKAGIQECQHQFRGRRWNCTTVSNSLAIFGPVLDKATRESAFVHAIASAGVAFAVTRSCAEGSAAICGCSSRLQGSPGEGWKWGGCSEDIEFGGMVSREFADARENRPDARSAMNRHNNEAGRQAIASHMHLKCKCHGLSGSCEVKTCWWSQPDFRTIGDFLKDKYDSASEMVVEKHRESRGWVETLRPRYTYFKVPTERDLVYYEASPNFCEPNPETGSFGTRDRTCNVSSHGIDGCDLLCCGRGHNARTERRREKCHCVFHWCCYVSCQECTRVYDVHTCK
# Phospholipase A2, sequence (P04054 whole entry): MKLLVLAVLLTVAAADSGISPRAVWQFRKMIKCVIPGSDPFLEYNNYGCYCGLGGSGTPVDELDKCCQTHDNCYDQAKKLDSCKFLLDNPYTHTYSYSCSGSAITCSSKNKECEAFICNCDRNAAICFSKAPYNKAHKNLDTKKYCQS
# Luciferin 4-monooxygenase, sequence (P08659 whole entry): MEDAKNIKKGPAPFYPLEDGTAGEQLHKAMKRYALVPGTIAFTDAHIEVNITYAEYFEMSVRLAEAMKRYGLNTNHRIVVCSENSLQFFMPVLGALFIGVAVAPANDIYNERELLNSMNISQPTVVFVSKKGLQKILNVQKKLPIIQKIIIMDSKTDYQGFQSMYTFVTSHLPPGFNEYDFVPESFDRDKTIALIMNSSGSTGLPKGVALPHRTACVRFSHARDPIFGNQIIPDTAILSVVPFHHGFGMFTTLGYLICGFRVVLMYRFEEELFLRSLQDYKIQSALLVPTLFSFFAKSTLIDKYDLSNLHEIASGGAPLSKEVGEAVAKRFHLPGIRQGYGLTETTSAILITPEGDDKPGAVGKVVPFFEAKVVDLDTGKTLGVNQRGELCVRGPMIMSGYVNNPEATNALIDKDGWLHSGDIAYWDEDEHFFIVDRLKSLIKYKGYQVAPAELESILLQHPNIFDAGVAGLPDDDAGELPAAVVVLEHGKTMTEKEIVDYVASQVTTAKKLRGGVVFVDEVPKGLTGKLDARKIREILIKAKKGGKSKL
compound,measurement,setting,value
COC(=O)c1ccc(C(=O)N2CCCC(Nc3ccc(C(C)C)cc3)C2)nc1 (stereo not drawn),IC50,Phospholipase A2,12.3 µM (active)
same,IC50,Cysteine protease ATG4B,17.9 µM (active)
CCCCc1ccc(-c2nc(-c3ccncc3)no2)cc1,EC50,[1],60.6 µM (active)
same,EC50,HT-1080,> 50 µM (not active)
COc1cccc(/C=C/c2ccncc2)c1OC,IC50,Protein Wnt-3a,1.7 µM (active)
O=C(Nc1ccccc1Cl)c1csc(-c2cccnc2)n1,AC50,[2],0.493 µM (active)
same,CC50,[3],> 40 µM (active)
O=C(c1cnc(N2CCN(c3ccccn3)CC2)c2ccccc12)N1CCN(c2cccc(Cl)c2)CC1,AC50,INS1,6.14 µM (active)
same,IC50,Protein Wnt-3a,7.02 µM (active)
same,AC50,[4],1.99 µM (active)
same,AC50,[5],59.9 µM (active)
same,AC50,[6],3.68 µM (active)
C[C@H]1CN([C@@H](C)CO)C(=O)Cc2cc(NC(=O)Nc3ccccc3)ccc2O[C@H]1CN(C)Cc1ccc(C(F)(F)F)cc1,AC50,[7],3.26 µM (active)
C[C@@H]1CN([C@@H](C)CO)C(=O)c2cc(NC(=O)Nc3ccc(C(F)(F)F)cc3)ccc2O[C@@H]1CN(C)Cc1ccc(Cl)c(Cl)c1,AC50,[7],3.38 µM (active)
Cc1ccc(CN2C(=O)N/C(=C\c3ccc(-c4ccc(C(=O)O)cc4C)o3)C2=O)cc1,CC50,[3],> 40 µM (active)
COc1ccc2c3c([nH]c2c1)[C@H](CO)N(Cc1ccccn1)CC31CCN(Cc2cccc(F)c2)CC1,AC50,[8],1.48 µM (active)
same,AC50,[9],> 39 µM (inactive)
same,AC50,[10],1.12 µM (active)
same,AC50,[11],0.559 µM (active)
same,AC50,[12],0.422 µM (active)
same,AC50,[13],1.21 µM (active)
COc1ccc2cc(-c3cc(C(=O)O)c4ccccc4n3)ccc2c1,IC50,cells [14],40.9 µM (active)
same,CC50,[15],22.5 µM (active)
same,AC50,HEK293,1.05 µM (active)
CCOc1ccc(/N=c2\cc(-c3ccc(OC)cc3)oc3ccccc23)cc1,CC50,[3],> 40 µM (active)
same,EC50,[16],47.5 µM (active)
same,EC50,[17],60.6 µM (active)
same,EC50,[18],2.64 µM (active)
same,EC50,[19],> 60 µM (not active)
COC(=O)C(C)N(C(=O)c1ccc(C(=O)c2ccccc2)cc1)c1c(C)cccc1C (stereo not drawn),IC50,Phospholipase A2,8.13 µM (active)
same,EC50,[20],> 260 µM (inactive)
same,IC50,Cysteine protease ATG4B,9.78 µM (active)
Cc1[nH]n(-c2ccc(Cl)cc2)c(=O)c1N=Nc1cccnc1,IC50,cells [21],1.78 µM (active)
same,CC50,[22],26.7 µM (active)
same,CC50,[23],12.2 µM (active)
same,CC50,[24],> 20 µM (active)
CCN1CCN(Cc2ccc(NC(=O)c3ccc(C)c(NC(=O)c4nccnc4N)c3)cc2C(F)(F)F)CC1,AC50,HEK293,0.528 µM (active)
O=C1CCC[C@@H]2[C@@H](Cc3ccccc3)[C@H](N3CCN(c4ccccc4)CC3)C[C@@H]3CCN1[C@@H]32,IC50,[25],> 80 µM (inactive)
C/C=C/c1ccccc1[C@H]1[C@@H](C#N)N(c2nc(CC)cs2)[C@@H]1CO,AC50,[8],3.11 µM (active)
same,AC50,[9],21.4 µM (active)
Cc1ccc(/C=C/C(=O)NCC2COc3ccccc3O2)o1 (stereo not drawn),IC50,[25],> 80 µM (inactive)
same,AC50,[26],33.1 µM (active)
C[C@H]1CN([C@@H](C)CO)C(=O)c2cccc(NC(=O)c3nc4ccccc4s3)c2O[C@@H]1CN(C)S(=O)(=O)c1ccc(Cl)cc1,AC50,[7],1.8 µM (active)
Cc1ccc(-c2csc(NC(=O)c3ccccc3F)c2C(=O)O)cc1,IC50,[27],11.5 µM (active)
same,IC50,[25],> 80 µM (inactive)
CC(C)(C)c1ccc(CN2C3=NCCCN3c3ccccc32)cc1,IC50,Protein Wnt-3a,2.94 µM (active)
same,AC50,[4],0.836 µM (active)
same,EC50,[18],0.387 µM (active)
same,AC50,[5],21.8 µM (active)
same,AC50,[6],0.978 µM (active)
same,EC50,[19],> 60 µM (not active)
Cc1ccc(C(=O)O/N=C2\CCCc3ccccc32)cc1,IC50,Phospholipase A2,2.83 µM (active)
same,IC50,Cysteine protease ATG4B,8.65 µM (active)
Cc1ccsc1-c1nc(CSCC(=O)N2CCN(c3ccccc3)CC2)c(C)o1,AC50,HEK293,225 µM (active)
COc1ccc(-c2ccc([C@H]3[C@H](C#N)N(C(=O)c4cccnc4)[C@H]3CO)cc2)cc1,AC50,[8],1.25 µM (active)
same,AC50,[9],> 42 µM (inactive)
same,AC50,[10],1.15 µM (active)
same,AC50,[11],0.586 µM (active)
same,AC50,[12],0.764 µM (active)
same,AC50,[13],> 100 µM (inactive)
COc1ccc2c3c([nH]c2c1)[C@@H](CO)N(Cc1ccccc1)CC31CCN(Cc2cncnc2)CC1,AC50,[8],2.12 µM (active)
same,AC50,[9],> 39 µM (inactive)
same,AC50,[10],1.27 µM (active)
same,AC50,[11],0.871 µM (active)
same,AC50,[12],0.929 µM (active)
Cc1ccc(S(=O)(=O)Nc2ccc3c(c2)C(=O)N([C@@H](C)CO)C[C@H](C)[C@H](CN(C)Cc2ccc(Cl)c(Cl)c2)O3)cc1,AC50,[7],5.67 µM (active)
CC(C)C(=O)Nc1ccc(NC(=O)c2ccccn2)cn1,EC50,[1],0.44 µM (active)
same,EC50,HT-1080,> 50 µM (not active)
